From patent US9499550B2 (BRISTOL-MYERS SQUIBB COMPANY, priority 2012, dated 2016)
Where two headings read alike, the source gives them in different places.

What was measured:
[1] = system: HCV genotype 1b (Con1) replicon in HUH-7 cells; assay: HCV replicon luciferase reporter assay, genotype 1b; assay type: cell-based; conditions: Hepatitis C virus, Huh-7, 72 h, HCV genotype 1b replicon luciferase, 3 days incubation
Summary of the method: (§1)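 Replicon inhibition for both genotypes was measured as Renilla luciferase signal (EnduRen, 7.5 μM final, 2 h) after 3-day, 37° C exposure of replicon-bearing HUH-7 cells in 4% FCS DMEM, 0.5% DMSO. The 1b construct carries S1179I; the 1a H77 construct carries P1496L and S2204I. Twenty-point, 3-fold dilutions were fitted four-parametrically for EC50, and CC50 was taken from multiplexed Cell Titer-Blue.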

[2] = system: HCV genotype 1a (H77 strain) replicon in HUH-7 cells; assay: HCV replicon luciferase reporter assay, genotype 1a; assay type: cell-based; conditions: Hepatitis C virus, Huh-7, 72 h, HCV genotype 1a replicon luciferase, 3 days incubation
Summary of the method: as §1

[3] = GETYPE1B, read-out: LE_1b (EC50, range)
[4] = GETYPE1A, read-out: LE_1a (EC50, range)

| Compound | EC50 ([1]; read-out: LE_1b (EC50, range)) [nM] | EC50 ([2]; read-out: LE_1a (EC50, range)) [nM] | EC50 [1, 3] [nM] | EC50 [2, 4] [nM] | EC50 ([1]; GETYPE1B, read-out: LE_1b (EC50)) [nM] | EC50 ([2]; GETYPE1A, read-out: LE_1a (EC50)) [nM] |
| --- | --- | --- | --- | --- | --- | --- |
| COc1ccc2c(O[C@@H]3C[C@H]4C(=O)N[C@]5(C(=O)NS(=O)(=O)C6(C)CC6)C[C@H]5/C=C\CC[C@@H](C)C[C@@H](C)[C@H](NC(=O)c5ccncc5F)C(=O)N4C3)ncc(OC)c2c1 [Compound 4142, (2R,6S,7R,9R,13aS,14aR,16aS,Z)-2-(4,6-dimethoxyisoquinolin-1-yloxy)-6-(3-fluoroisonicotinamido)-7,9-dimethyl-N-(1-methylcyclopropylsulfonyl)-5,16-dioxo-1,2,3,5,6,7,8,9,10,11,13a,14,14a,15,16,16a-hexadecahydrocyclopropa[e]pyrrolo[1,2-a][1,4]diazacyclopentadecine-14a-carboxamide] | < 5.46 | < 5.46 |  |  |  |  |
| COc1ccc2c(O[C@@H]3C[C@H]4C(=O)N[C@]5(C(=O)NS(=O)(=O)C6(C)CC6)C[C@H]5/C=C\CC[C@@H](C)C[C@@H](C)[C@H](NC(=O)c5ccn(C)c(=O)c5)C(=O)N4C3)ncc(OC)c2c1 [Compound 4143, (2R,6S,7R,9R,13aS,14aR,16aS,Z)-2-(4,6-dimethoxyisoquinolin-1-yloxy)-7,9-dimethyl-6-(1-methyl-2-oxo-1,2-dihydropyridine-4-carboxamido)-N-(1-methylcyclopropylsulfonyl)-5,16-dioxo-1,2,3,5,6,7,8,9,10,11,13a,14,14a,15,16,16a-hexadecahydrocyclopropa[e]pyrrolo[1,2-a][1,4]diazacyclopentadecine-14a-carboxamide] | 4.82 to 103 | 4.82 to 103 |  |  |  |  |
| COc1ccc2c(O[C@@H]3C[C@H]4C(=O)N[C@]5(C(=O)NS(=O)(=O)C6(C)CC6)C[C@H]5/C=C\CC[C@@H](C)C[C@@H](C)[C@H](NC(=O)OC(C)(C)C)C(=O)N4C3)ncnc2c1 [Compound 4144, tert-butyl (2R,6S,7R,9R,13aS,14aR,16aS,Z)-2-(7-methoxyquinazolin-4-yloxy)-7,9-dimethyl-14a-(1-methylcyclopropylsulfonylcarbamoyl)-5,16-dioxo-1,2,3,5,6,7,8,9,10,11,13a,14,14a,15,16,16a-hexadecahydrocyclopropa[e]pyrrolo[1,2-a][1,4]diazacyclopentadecin-6-ylcarbamate] | < 5.46 | < 5.46 |  |  |  |  |
| C[C@@H]1CC/C=C\[C@@H]2C[C@@]2(C(=O)NS(=O)(=O)C2(C)CC2)NC(=O)[C@@H]2C[C@@H](Oc3ncnc4c(Cl)cccc34)CN2C(=O)[C@@H](NC(=O)OC(C)(C)C)[C@H](C)C1 [Compound 4145, tert-butyl (2R,6S,7R,9R,13aS,14aR,16aS,Z)-2-(8-chloroquinazolin-4-yloxy)-7,9-dimethyl-14a-(1-methylcyclopropylsulfonylcarbamoyl)-5,16-dioxo-1,2,3,5,6,7,8,9,10,11,13a,14,14a,15,16,16a-hexadecahydrocyclopropa[e]pyrrolo[1,2-a][1,4]diazacyclopentadecin-6-ylcarbamate] | < 5.46 | < 5.46 |  |  |  |  |
| COc1ccc2c(O[C@@H]3C[C@H]4C(=O)N[C@]5(C(=O)NS(=O)(=O)C6(CF)CC6)C[C@H]5/C=C\CC[C@@H](C)C[C@@H](C)[C@H](NC(=O)OC(C)(C)C)C(=O)N4C3)nccc2c1 [Compound 4147, tert-butyl (2R,6S,7R,9R,13aS,14aR,16aS,Z)-14a-(1-(fluoromethyl)cyclopropylsulfonylcarbamoyl)-2-(6-methoxyisoquinolin-1-yloxy)-7,9-dimethyl-5,16-dioxo-1,2,3,5,6,7,8,9,10,11,13a,14,14a,15,16,16a-hexadecahydrocyclopropa[e]pyrrolo[1,2-a][1,4]diazacyclopentadecin-6-ylcarbamate] | < 5.46 | < 5.46 |  |  |  |  |
| COc1ccc2c(O[C@@H]3C[C@H]4C(=O)N[C@]5(C(=O)NS(=O)(=O)C6(CF)CC6)C[C@H]5/C=C\CC[C@@H](C)C[C@@H](C)[C@H](NC(=O)OC(C)(C)C(F)(F)F)C(=O)N4C3)cc(-c3ccc(OC(C)C)cc3)nc2c1 [Compound 4148] |  |  | < 5.46 | < 5.46 |  |  |
| CCOc1cnc(O[C@@H]2C[C@H]3C(=O)N[C@]4(C(=O)NS(=O)(=O)C5(CF)CC5)C[C@H]4/C=C\CC[C@@H](C)C[C@@H](C)[C@H](NC(=O)OC(C)(C)C(F)(F)F)C(=O)N3C2)c2ccccc12 [Compound 4149] |  |  | < 5.46 | < 5.46 |  |  |
| COc1ccc2c(O[C@@H]3C[C@H]4C(=O)N[C@]5(C(=O)NS(=O)(=O)C6(CF)CC6)C[C@H]5/C=C\CC[C@@H](C)C[C@@H](C)[C@H](NC(=O)OC(C)(C)C(F)(F)F)C(=O)N4C3)nccc2c1 [Compound 4151] |  |  | < 5.46 | < 5.46 |  |  |
| COc1cnc(O[C@@H]2C[C@H]3C(=O)N[C@]4(C(=O)NS(=O)(=O)C5(Cl)CC5)C[C@H]4/C=C\CC[C@@H](C)C[C@@H](C)[C@H](NC(=O)OC(C)(C)C(F)(F)F)C(=O)N3C2)c2ccccc12 [Compound 4153] |  |  | < 5.46 | < 5.46 |  |  |
| COc1ccc2c(O[C@@H]3C[C@H]4C(=O)N[C@]5(C(=O)NS(=O)(=O)C6(CF)CC6)C[C@H]5/C=C\CC[C@@H](C)C[C@@H](C)[C@H](NC(=O)OC(C)(C)C(F)(F)F)C(=O)N4C3)ncc(OC)c2c1 [Compound 4154] |  |  | < 5.46 | < 5.46 |  |  |
| COc1cnc(O[C@@H]2C[C@H]3C(=O)N[C@]4(C(=O)NS(=O)(=O)C5(CF)CC5)C[C@H]4/C=C\CC[C@@H](C)C[C@@H](C)[C@H](NC(=O)OC(C)(C)C(F)(F)F)C(=O)N3C2)c2ccccc12 [Compound 4155] |  |  | < 5.46 | < 5.46 |  |  |
| COc1ccc2c(O[C@@H]3C[C@H]4C(=O)N[C@]5(C(=O)NS(=O)(=O)C6(CF)CC6)C[C@H]5/C=C\CC[C@@H](C)C[C@@H](C)[C@H](NC(=O)OC(C)(C)C)C(=O)N4C3)ncc(OC)c2c1 [Compound 4156, tert-butyl (2R,6S,7R,9R,13aS,14aR,16aS,Z)-2-(4,6-dimethoxyisoquinolin-1-yloxy)-14a-(1-(fluoromethyl)cyclopropylsulfonylcarbamoyl)-7,9-dimethyl-5,16-dioxo-1,2,3,5,6,7,8,9,10,11,13a,14,14a,15,16,16a-hexadecahydrocyclopropa[e]pyrrolo[1,2-a][1,4]diazacyclopentadecin-6-ylcarbamate] | < 5.46 | < 5.46 |  |  |  |  |
| COc1cnc(O[C@@H]2C[C@H]3C(=O)N[C@]4(C(=O)NS(=O)(=O)C5(CF)CC5)C[C@H]4/C=C\CC[C@@H](C)C[C@@H](C)[C@H](NC(=O)OC(C)(C)C)C(=O)N3C2)c2ccccc12 [Compound 4157, tert-butyl (2R,6S,7R,9R,13aS,14aR,16aS,Z)-14a-(1-(fluoromethyl)cyclopropylsulfonylcarbamoyl)-2-(4-methoxyisoquinolin-1-yloxy)-7,9-dimethyl-5,16-dioxo-1,2,3,5,6,7,8,9,10,11,13a,14,14a,15,16,16a-hexadecahydrocyclopropa[e]pyrrolo[1,2-a][1,4]diazacyclopentadecin-6-ylcarbamate] | < 5.46 | < 5.46 |  |  |  |  |
| C[C@@H]1CC/C=C\[C@@H]2C[C@@]2(C(=O)NS(=O)(=O)C2(C)CC2)NC(=O)[C@@H]2C[C@@H](Oc3ncc(OCC4CC4)c4ccccc34)CN2C(=O)[C@@H](NC(=O)OC(C)(C)C(F)(F)F)[C@H](C)C1 [Compound 4158] |  |  | < 5.46 | < 5.46 |  |  |
| COc1cc2ccnc(O[C@@H]3C[C@H]4C(=O)N[C@]5(C(=O)NS(=O)(=O)C6(CF)CC6)C[C@H]5/C=C\CC[C@@H](C)C[C@@H](C)[C@H](NC(=O)OC(C)(C)C)C(=O)N4C3)c2cc1F [Compound 4159, tert-butyl (2R,6S,7R,9R,13aS,14aR,16aS,Z)-2-(7-fluoro-6-methoxyisoquinolin-1-yloxy)-14a-(1-(fluoromethyl)cyclopropylsulfonylcarbamoyl)-7,9-dimethyl-5,16-dioxo-1,2,3,5,6,7,8,9,10,11,13a,14,14a,15,16,16a-hexadecahydrocyclopropa[e]pyrrolo[1,2-a][1,4]diazacyclopentadecin-6-ylcarbamate] | < 5.46 | < 5.46 |  |  |  |  |
| COc1cc2c(OC)cnc(O[C@@H]3C[C@H]4C(=O)N[C@]5(C(=O)NS(=O)(=O)C6(CF)CC6)C[C@H]5/C=C\CC[C@@H](C)C[C@@H](C)[C@H](NC(=O)OC(C)(C)C(F)(F)F)C(=O)N4C3)c2cc1F [Compound 4160] |  |  | < 5.46 | < 5.46 |  |  |
| COc1cc2ccnc(O[C@@H]3C[C@H]4C(=O)N[C@]5(C(=O)NS(=O)(=O)C6(CF)CC6)C[C@H]5/C=C\CC[C@@H](C)C[C@@H](C)[C@H](NC(=O)OC(C)(C)C(F)(F)F)C(=O)N4C3)c2cc1F [Compound 4161] |  |  | < 5.46 | < 5.46 |  |  |
| COc1ccc2ncc(O[C@@H]3C[C@H]4C(=O)N[C@]5(C(=O)NS(=O)(=O)C6(C)CC6)C[C@H]5/C=C\CC[C@@H](C)C[C@@H](C)[C@H](NC(=O)OC(C)(C)C(F)(F)F)C(=O)N4C3)nc2c1 [Compound 4162] |  |  | < 5.46 | < 5.46 |  |  |
| COc1ccc2nc(O[C@@H]3C[C@H]4C(=O)N[C@]5(C(=O)NS(=O)(=O)C6(C)CC6)C[C@H]5/C=C\CC[C@@H](C)C[C@@H](C)[C@H](NC(=O)OC(C)(C)C(F)(F)F)C(=O)N4C3)cnc2c1 [Compound 4163] |  |  | < 5.46 | 4.82 to 103 | 1.89 | 9.8 |
| COc1cc2c(OC)cnc(O[C@@H]3C[C@H]4C(=O)N[C@]5(C(=O)NS(=O)(=O)C6(C)CC6)C[C@H]5/C=C\CC[C@@H](C)C[C@@H](C)[C@H](NC(=O)OC(C)(C)C(F)(F)F)C(=O)N4C3)c2cc1F [Compound 4164] |  |  | < 5.46 | < 5.46 |  |  |
